Source: patent publication US12390423B2 (priority 2019, dated 2025)

Assays:
[1] = tested on: AMPK activation and mitochondrial biogenesis; assay: Immunoblotting (pAMPKα, PGC-1α) and NAO mitochondrial mass in INS-1 (832/13) cells; format: cell-based, rat; conditions: 25 μM AvoB, 24 h
Procedure: For all ROS studies, INS-1 (832/13) cells and C2C12 myotubes were treated with or without palmitate and FAO inhibitors for 24 h in low glucose cell culture media as described for the FAO assay. After treatment, cells were trypsinized and re-suspended in PBS containing 5 μM of the fluorescent dye MitoSOX® (Molecular Probes, Invitrogen) and allowed to incubate for 5-15 minutes in a humidified atmosphere containing 5% CO2 at 37° C. Cells were then washed in PBS, placed in a 96 well plate and fluorescence was measured by flow cytometry. ROS was quantified by normalizing the mean fluorescence values of live gated cells to vehicle control. Mitochondrial membrane potential (MMP) in INS-1 (832/13) and C2C12 myotubes was measured using the cationic fluorescent dye JC-1 (Molecular Probes). […] JC-1 fluoresces green in the cytosol where it exists as a monomer, after entering the mitochondria JC-1 monomers form J aggregates and fluoresce red, thus the red/green fluorescence ratio is used to determine MMP. […] Cells were then washed in PBS, placed in a 96 well plate and fluorescence was measured by flow cytometry. MMP was quantified by normalizing the mean fluorescence values of live gated cells to vehicle control. […] Cells were treated, washed and collected as described and incubated with 0.35 μM NAO and green fluorescence was measured using flow cytometry. […]

C2C12 myotubes = assay: Fatty acid oxidation ([1-14C]-palmitate) in C2C12 myotubes; format: cell-based, mouse; conditions: 25 μM AvoB, 0.5 mM palmitate-BSA/1 mM L-carnitine, 24 h
Procedure: FAO in cell lines was determined using established methods. […] [1-^14C]-palmitate was prepared and applied to cells as follows: purchased stock supplied in ethanol (PerkinElmer, MA, USA) was dried in vacuo and then re-suspended in a solution containing unlabeled carrier in BSA to yield a mixture of 7% BSA [w/v], 2.5 mM palmitate with [1-^14C]-palmitate at a final concentration of 10 μCi/mL. Following a 16 hour incubation at 37° C., the solution containing radiolabeled palmitate was diluted with respective serum free cell culture media (low glucose RPMI media for INS-1 (832/13) cells and low glucose DMEM for C2C12 myotubes) containing 1 mM L-carnitine to a final concentration of 0.3% BSA, 100 μM palmitate, and 0.4 μCi/mL [1-^14C]-palmitate. Following incubation of treated cells with [1-^14C]-palmitate, 400 μL of well media was transferred to acidification vials containing perchloric acid and capped with CO2 filter traps impregnated with 1M NaOH. […] The CO2 trap was transferred to scintillation vials containing 4 mL of scintillation fluid and complete FAO was quantified using a Tri-Carb 2910 TR liquid scintillation analyzer (PerkinElmer). The amount of radioactivity in the media was also determined after pelleting cells and debris (14,000×g, 10 min); this quantified acid soluble metabolites (ASMs), an indirect measure of incomplete FAO.

avocatin B [AvoB]
AMPK activation (pAMPKα-Thr172) [1]: independent of AMP-activated protein kinase (AMPK) activation | Mitochondrial biogenesis (PGC-1α protein, NAO dye) [1]: independent | Complete FAO ([1-14C]-palmitate oxidation to CO2) (C2C12 myotubes): inhibited complete FAO | Incomplete FAO (ASM levels) (C2C12 myotubes): did not increase incomplete FAO
